The values below come from patent publication US12679839B2, “Cyclin-dependent kinase 7 (CDK7) non-covalent inhibitors” (JANSSEN PHARMACEUTICA NV, priority 2020, dated 2026).

Test [1] deals with T1, CDK7/Cyclin H/MAT-1 complex (Homo sapiens, UniProt P50613).
T1 construct: Human CDK7 (amino acids 1-346); His6 (N); TEV protease cleavage site (N); made in house; host or cells: baculovirus-SF9 insect cells
Put plainly: Flint assay, end-point fluorescence (5 nM CDK7/Cyclin H/MAT-1 complex). The class given is biochemical. To be noted: read-out: CDK7 (5 nM) pIC50 (converted). The procedure: Human CDK7 (amino acids 1-346) containing an N-terminal His6-tag followed by a tobacco etch virus (TEV) protease cleavage site, human MAT1 (amino acids 1-309) and human cyclin H (amino acids 1-323) were co-expressed in the baculovirus-SF9 insect cell expression system to generate a trimeric complex. Cell pellets were collected 72 h post-infection and were resuspended by Dounce homogenization in 20 mM Hepes-NaOH (pH 8.0), 300 mM NaCl, 10% glycerol, 2 mM dithiothreitol DTT), and 20 mM Imidazole supplemented with cOmplete™ Protease Inhibitor Cocktail (Roche) and 25 U/mL Benzonase® Nuclease HC according to the manufacturer's instructions. Cells were lysed by passing through a Microfluidics M110Y Microfluidizer 3 times at 600 kPa followed by centrifugation at 38,000×g at 4° C. for 1 hour. The supernatant was loaded onto a pre-equilibrated HisTrap HP column and eluted in 20 mM Hepes-NaOH (pH 8.0), 50 mM NaCl, 10% glycerol, 2 mM DTT, and 400 mM Imidazole. The eluate was further purified by gel filtration on a Superdex S200 16/60 column and eluted with 20 mM Hepes-NaOH (pH 7.5), 50 mM NaCl, 10% Glycerol, 2 mM DTT. Fractions containing a trimeric complex of CDK7, cyclin H, and MAT1 in a 1:1:1 ratio were pooled and concentrated to 3 mg/mL in a 10 kDa MWCO concentrator, and diluted to a final concentration of 1.6 mg/mL in 11.1 mM Hepes-NaOH (pH 8.0), 27.8 mM NaCl, 1.1 mM DTT and 50% glycerol.
Compounds with potencies approaching the limit of detection of the assay (IC50≤10 nM) were further assessed in a more sensitive fluorescence end-point assay.
[formula] where νo is the rate in the absence of inhibitor, νmin is the rate at highest inhibitor concentration, and h is the Hill coefficient. Flint Assay (5 nM CDK7/Cyclin H/MAT-1 Complex)
The continuous absorbance assay was converted to an end-point fluorescence assay following the NADH fluorescence signal decrease at the excitation and emission wavelengths of 340 nm and 440 nm, respectively.
Under the same concentrations of substrates and coupling reagents used in the absorbance assay, the fluorescence assay was performed at a reduced concentration of the CDK7/Cyclin H/MAT-1 complex of 5 nM (final concentration) with a reaction time of 24 hours. The percent of inhibition was calculated by the following equation. Percent of inhibition=(Sample−NC)/(PC−NC)*100 where NC is the mean if negative control (reaction without inhibitor), and PC is the mean of positive control (reaction with complete inhibition).
Dosing curves were fitted using the following equation to obtain IC50: Y=Bottom+(Top−Bottom)/(1+10^((log IC50−X)*Hill slope)) where X=log10 of the compound concentration; top and bottom can be defined by PC and NC respectively. Imaging-Based Cellular RNA PolII Ser5 Phosphorylation Assay

The target of test [2] is T1, CDK7/Cyclin H/MAT-1 complex. The test can be described thus: Absorbance kinetic assay (20 nM CDK7/Cyclin H/MAT-1 complex). To be noted: read-out: CDK7 (20 nM) pIC50 (converted). The class given is biochemical. The gist of the method:
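Trimeric complex (His6-TEV CDK7 1-346, MAT1 1-309, cyclin H 1-323) from Sf9 cells, at 20 nM, phosphorylating RNA Pol II-derived CDK7/9-tide; ADP coupled via PK/LDH to NADH depletion read at 340 nm every 2 min for 8 h. Steady-state slopes gave % inhibition; IC50 from 11-point Hill fit.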

T1 sequence (P50613 whole entry, the tested form may be a part): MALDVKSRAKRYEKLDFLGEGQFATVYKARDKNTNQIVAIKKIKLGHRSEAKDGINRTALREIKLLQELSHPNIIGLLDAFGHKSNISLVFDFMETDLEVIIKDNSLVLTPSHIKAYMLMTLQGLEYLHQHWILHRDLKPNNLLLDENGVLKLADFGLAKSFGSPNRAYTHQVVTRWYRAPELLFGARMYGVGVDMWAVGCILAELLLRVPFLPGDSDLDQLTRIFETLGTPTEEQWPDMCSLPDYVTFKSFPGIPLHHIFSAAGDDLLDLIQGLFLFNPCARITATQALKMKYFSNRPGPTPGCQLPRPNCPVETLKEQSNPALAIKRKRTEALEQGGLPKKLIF
T1 sequence (P51946 whole entry partner, the tested form may be a part): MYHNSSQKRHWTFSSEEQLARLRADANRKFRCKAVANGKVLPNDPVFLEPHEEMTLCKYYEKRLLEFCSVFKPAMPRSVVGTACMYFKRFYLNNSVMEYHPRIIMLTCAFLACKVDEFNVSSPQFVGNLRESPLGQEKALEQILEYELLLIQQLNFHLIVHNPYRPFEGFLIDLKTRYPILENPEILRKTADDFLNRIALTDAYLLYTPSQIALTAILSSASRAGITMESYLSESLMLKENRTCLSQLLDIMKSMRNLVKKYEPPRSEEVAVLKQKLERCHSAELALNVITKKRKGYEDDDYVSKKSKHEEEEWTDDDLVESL
T1 sequence (P51948 whole entry partner, the tested form may be a part): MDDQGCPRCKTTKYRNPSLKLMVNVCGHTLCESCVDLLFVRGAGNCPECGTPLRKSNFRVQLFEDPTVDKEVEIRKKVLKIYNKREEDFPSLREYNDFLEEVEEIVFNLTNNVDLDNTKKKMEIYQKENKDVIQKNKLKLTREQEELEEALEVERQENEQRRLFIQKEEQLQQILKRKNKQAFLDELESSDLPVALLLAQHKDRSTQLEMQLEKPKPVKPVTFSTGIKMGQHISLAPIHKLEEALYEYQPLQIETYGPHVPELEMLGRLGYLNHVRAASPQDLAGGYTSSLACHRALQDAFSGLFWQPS

As for `C[C@@H]1Cc2cnc(NCc3ccn(C)n3)nc2CN1C(=O)[C@@H]1CCN(C)C[C@H]1c1ccccc1F` (relative stereo) [Compound 130], the IC50 in test [1] is 7.94 nM; in test [2], 38 nM.
Take `C[C@@H]1Cc2cnc(NCc3ccn(C)n3)nc2CN1C(=O)[C@H]1CCN(C)C[C@@H]1c1ccccc1F` (relative stereo) [Compound 131]: the results for the IC50 in test [1] and in test [2] were 9.12 nM and 61.7 nM, respectively.
With `C[C@@H]1Cc2cnc(N[C@H]3CCN(C)C(=O)C3)nc2CN1C(=O)[C@H]1CCN(C)C[C@@H]1c1ccccc1` (relative stereo) [Compound 5], the IC50 is 2.14 nM in test [1] and under 9.77 nM in test [2].
